Results reported in patent US8846719B2, “Isoxazolo-pyridine derivatives” (Roche Palo Alto LLC, priority 2007, dated 2014).
pKi: −log10 of the molar value.

Target: human GABA A receptor α5β3γ2 (Homo sapiens (Human), UniProt P18507+P31644)
Assay: [3H]flumazenil competition binding assay, human GABA A α5β3γ2 receptors expressed in HEK293 cells
Conditions: human receptor; displacement of [3H]flumazenil (0.5 nM); means of two determinations; read-out: hKi GABAAa5
In short: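 Competition for [3H]flumazenil binding on membranes of HEK293 cells transiently transfected with human α5β3γ2 receptors, in Krebs-tris buffer pH 7.5.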

pKi | SMILES
8.03 | Cc1onc(-c2ccc(F)c(F)c2)c1COc1ccc(C(=O)NC(C)(C)CO)cn1 [Example 267, 6-[3-(3,4-Difluoro-phenyl)-5-methyl-isoxazol-4-ylmethoxy]-N-(2-hydroxy-1,1-dimethyl-ethyl)-nicotinamide]
8.96 | Cc1onc(-c2ccc(Cl)cc2)c1COc1ccc(C(=O)NC2CC2)cn1 [Example 120, 6-[3-(4-Chloro-phenyl)-5-methyl-isoxazol-4-ylmethoxy]-N-cyclopropyl-nicotinamide]
9.05 | Cc1ccc(-c2noc(C)c2COc2ccc(C(=O)NC3CCOCC3)cn2)cc1 [Example 251, 6-(5-Methyl-3-p-tolyl-isoxazol-4-ylmethoxy)-N-(tetrahydro-pyran-4-yl)-nicotinamide]
7.75 | Cc1onc(-c2cccc(F)c2)c1CNc1ccc(C(=O)NCC(F)(F)F)cn1 [Example 168, 6-{[3-(3-Fluoro-phenyl)-5-methyl-isoxazol-4-ylmethyl]-amino}-N-(2,2,2-trifluoro-ethyl)-nicotinamide]
7.51 | CCNC(=O)c1ccc(OCc2c(-c3ccccc3)noc2C(F)(F)F)nc1 [Example 130, N-Ethyl-6-(3-phenyl-5-trifluoromethyl-isoxazol-4-ylmethoxy)-nicotinamide]
7.63 | O=C(NCCO)c1ccc(OCc2conc2-c2ccc(F)cc2)nc1 [Example 338, 6-[3-(4-Fluoro-phenyl)-isoxazol-4-ylmethoxy]-N-(2-hydroxy-ethyl)-nicotinamide]
9.22 | Cc1onc(-c2ccc(Cl)cn2)c1COc1ccc(C(=O)N2CCOCC2)cn1 [Example 309, {6-[3-(5-Chloro-pyridin-2-yl)-5-methyl-isoxazol-4-ylmethoxy]-pyridin-3-yl}-morpholin-4-yl-methanone]
9.10 | Cc1ccc(-c2noc(C)c2COc2ccc(C(=O)NC(C)C)cn2)c(F)c1 [Example 253, 6-[3-(2-Fluoro-4-methyl-phenyl)-5-methyl-isoxazol-4-ylmethoxy]-N-isopropyl-nicotinamide]
8.51 | Cc1cccc(-c2noc(C)c2COc2ccc(C(=O)NC(C)C)cn2)c1 [Example 250, N-Isopropyl-6-(5-methyl-3-m-tolyl-isoxazol-4-ylmethoxy)-nicotinamide]
9.10 | Cc1onc(-c2ccc(Cl)cc2)c1COc1ccc(C(=O)N[C@H](C)CO)cn1 [Example 256, 6-[3-(4-Chloro-phenyl)-5-methyl-isoxazol-4-ylmethoxy]-N—((R)-2-hydroxy-1-methyl-ethyl)-nicotinamide]
7.53 | O=C(N[C@@H]1CCC[C@H]1O)c1ccc(OCc2conc2-c2ccc(F)cc2)nc1 (single isomer, unassigned) [Example 341, 6-[3-(4-Fluoro-phenyl)-isoxazol-4-ylmethoxy]-N-((1R,2R)-2-hydroxy-cydopentyl)-nicotinamide or 6-[3-(4-fluoro-phenyl)-isoxazol-4-ylmethoxy]-N-((1S,2S)-2-hydroxy-cydopentyl)-nicotinamide]
8.54 | Cc1onc(-c2ccccc2)c1COc1ccc(C(=O)NC2(C#N)CC2)cn1 [Example 243, N-(1-Cyano-cyclopropyl)-6-(5-methyl-3-phenyl-isoxazol-4-ylmethoxy)-nicotinamide]
9.00 | Cc1onc(-c2ccccc2)c1COc1ccc(C(=O)NC(C)CO)cn1 (centres unmarked) [Example 190, N-(2-Hydroxy-1-methyl-ethyl)-6-(5-methyl-3-phenyl-isoxazol-4-ylmethoxy)-nicotinamide]
8.00 | Cc1onc(-c2ccccc2)c1COc1ccc(C(=O)NC(C)(C)CO)cn1 [Example 183, N-(2-Hydroxy-1,1-dimethyl-ethyl)-6-(5-methyl-3-phenyl-isoxazol-4-ylmethoxy)-nicotinamide]
7.43 | Cc1onc(-c2ccccc2)c1COc1ccc(C(=O)N2CCSC2)cn1 [Example 242, [6-(5-Methyl-3-phenyl-isoxazol-4-ylmethoxy)-pyridin-3-yl]-thiazolidin-3-yl-methanone]
8.25 | CC(C)NC(=O)c1ccc(OCc2conc2-c2ccc(Cl)cc2)nc1 [Example 344, 6-[3-(4-Chloro-phenyl)-isoxazol-4-ylmethoxy]-N-isopropyl-nicotinamide]
8.57 | Cc1onc(-c2ccc(F)c(F)c2)c1COc1ccc(C(=O)NCC(F)(F)F)cn1 [Example 125, 6-[3-(3,4-Difluoro-phenyl)-5-methyl-isoxazol-4-ylmethoxy]-N-(2,2,2-trifluoro-ethyl)-nicotinamide]
9.10 | Cc1onc(-c2ccc(Cl)cc2)c1COc1ccc(C(=O)NC2CCOCC2)cn1 [Example 121, 6-[3-(4-Chloro-phenyl)-5-methyl-isoxazol-4-ylmethoxy]-N-(tetrahydro-pyran-4-yl)-nicotinamide]
8.70 | Cc1onc(-c2ccccc2)c1COc1ccc(C(=O)NCC(O)CO)cn1 (centres unmarked) [Example 218, N-(2,3-Dihydroxy-propyl)-6-(5-methyl-3-phenyl-isoxazol-4-ylmethoxy)-nicotinamide]

Continued, compound first:

SMILES | pKi
CC(C)NC(=O)c1ccc(OCc2conc2-c2ccc(F)cn2)nc1 [Example 366, 6-[3-(5-Fluoro-pyridin-2-yl)-isoxazol-4-ylmethoxy]-isopropyl-nicotinamide] | 8.17
CCOC(=O)CN1CCCC(NC(=O)c2ccc(OCc3c(-c4ccccc4)noc3C)nc2)C1 (centres unmarked) [Example 40, (3-{[6-(5-Methyl-3-phenyl-isoxazol-4-ylmethoxy)-pyridine-3-carbonyl]-amino}-piperidin-1-yl)-acetic acid ethyl ester] | 7.86
Cc1onc(-c2ccccc2)c1COc1ccc(C(=O)NCCO)cn1 [Example 13, N-(2-Hydroxy-ethyl)-6-(5-methyl-3-phenyl-isoxazol-4-ylmethoxy)-nicotinamide] | 8.59
Cc1onc(-c2ccccc2)c1COc1ccc(C2(O)COC2)cn1 [Example 74, 3-[6-(5-Methyl-3-phenyl-isoxazol-4-ylmethoxy)-pyridin-3-yl]-oxetan-3-ol] | 7.55
Cc1onc(-c2ccc(F)cn2)c1COc1ccc(C(=O)NC2CCOCC2)cn1 [Example 288, 6-[3-(5-Fluoro-pyridin-2-yl)-5-methyl-isoxazol-4-ylmethoxy]-(tetrahydro-pyran-4-yl)-nicotinamide] | 9.40
Cc1onc(-c2ccccc2)c1COc1ccc(C(=O)NC(C)(C)C)cn1 [Example 47, N-tert-Butyl-6-(5-methyl-3-phenyl-isoxazol-4-ylmethoxy)-nicotinamide] | 7.93
Cc1onc(-c2ccccc2)c1COc1ccc(C(=O)NCCOC(C)C)cn1 [Example 189, N-(2-Isopropoxy-ethyl)-6-(5-methyl-3-phenyl-isoxazol-4-ylmethoxy)-nicotinamide] | 7.38
Cc1onc(-c2ccccc2)c1COc1ccc(C(=O)NCC(F)F)cn1 [Example 11, N-(2,2-Difluoro-ethyl)-6-(5-methyl-3-phenyl-isoxazol-4-ylmethoxy)-nicotinamide] | 8.70
COC(=O)c1ccc(OCc2c(-c3cccc(Cl)c3)noc2C)nc1 [Example 97, 6-[3-(3-Chloro-phenyl)-5-methyl-isoxazol-4-ylmethoxy]-nicotinic acid methyl ester] | 7.56
CNC(=O)c1ccc(OCc2c(-c3ccc(F)cn3)noc2C)nc1 [Example 298, 6-[3-(5-Fluoro-pyridin-2-yl)-5-methyl-isoxazol-4-ylmethoxy]-methyl-nicotinamide] | 9.22
CCNC(=O)c1ccc(OCc2c(-c3ccccn3)noc2C)nc1 [Example 280, Ethyl-6-(5-methyl-3-pyridin-2-yl-isoxazol-4-ylmethoxy)-nicotinamide] | 8.96
Cc1onc(-c2ccc(F)cc2)c1COc1ccc(C2(O)COC2)cn1 [Example 113, 3-{6-[3-(4-Fluoro-phenyl)-5-methyl-isoxazol-4-ylmethoxy]-pyridin-3-yl}-oxetan-3-ol] | 7.68
Cc1onc(-c2ccccc2)c1COc1ccc(C(=O)NC[C@H]2CC(=O)NO2)cn1 [Example 18] | 7.71
Cc1onc(-c2ccccc2)c1COc1ccc(C(=O)N2CCCn3nccc32)cn1 [Example 78, (6,7-Dihydro-5H-pyrazolo[1,5-a]pyrimidin-4-yl)-[6-(5-methyl-3-phenyl-isoxazol-4-ylmethoxy)-pyridin-3-yl]-methanone] | 7.39
Cc1cccc(OCc2c(-c3ccccc3)noc2C)n1 [Example 2, 2-Methyl-6-(5-methyl-3-phenyl-isoxazol-4-ylmethoxy)-pyridine] | 8.51
Cc1nc(OCc2c(-c3ccccc3)noc2C)ccc1C(=O)NC1CCOCC1 [Example 60, 2-Methyl-6-(5-methyl-3-phenyl-isoxazol-4-ylmethoxy)-N-(tetrahydro-pyran-4-yl)-nicotinamide] | 7.41
Cc1onc(-c2ccccc2)c1COc1ncc(C(=O)NC(C)C)cc1Br [Example 68, 5-Bromo-N-isopropyl-6-(5-methyl-3-phenyl-isoxazol-4-ylmethoxy)-nicotinamide] | 7.73
COC(=O)c1ccc(OCc2c(-c3ccc(F)cc3)noc2C(F)(F)F)nc1 [Example 136, 6-[3-(4-Fluoro-phenyl)-5-trifluoromethyl-isoxazol-4-ylmethoxy]-nicotinic acid methyl ester] | 7.24
Cc1onc(-c2ccc(Cl)cc2)c1COc1ccc(C(=O)N2CCSCC2)cn1 [Example 124, {6-[3-(4-Chloro-phenyl)-5-methyl-isoxazol-4-ylmethoxy]-pyridin-3-yl}-thiomorpholin-4-yl-methanone] | 8.12
Cc1onc(-c2ccccc2)c1COc1ccc(C(=O)N2CCC(O)CC2)cn1 [Example 187, (4-Hydroxy-piperidin-1-yl)-[6-(5-methyl-3-phenyl-isoxazol-4-ylmethoxy)-pyridin-3-yl]-methanone] | 7.13
Cc1onc(-c2ccc(F)cc2)c1COc1ccc(C(=O)N2CCSCC2)cn1 [Example 111, {6-[3-(4-Fluoro-phenyl)-5-methyl-isoxazol-4-ylmethoxy]-pyridin-3-yl}-thiomorpholin-4-yl-methanone] | 7.98
Cc1onc(-c2ccccc2)c1COc1ccc(C(=O)NC2CCC2)cn1 [Example 28, N-Cyclobutyl-6-(5-methyl-3-phenyl-isoxazol-4-ylmethoxy)-nicotinamide] | 8.55
